{"source": "patent US11124758B2", "about": "“Bacteria culture medium and applications thereof” (priority 2013, dated 2021)", "key": {"[1]": {"details": "in human body; cited from earlier work"}, "[2]": {"tested_on": "E. coli DH5α strain", "experiment": "Shelf life test of antibiotic premixed in culture medium: suppression of E. coli growth after storage", "type": "cell-based", "details": "for suppression of growth of E. coli DH5α after storage: 6, 12, 18 and 24 months at 4° C.; for shelf life of culture media containing the antibiotic: 100 μg/ml, LB medium, storage at 4° C."}, "[3]": {"details": "4° C., cited from earlier work"}, "[4]": {"details": "4° C.; cited from earlier work"}, "[5]": {"details": "less than 25° C.; cited from earlier work"}, "[6]": {"details": "100 μg/ml or 1 mg/ml in LB liquid and LB agar plate medium, two months of storage at 4° C., incubated overnight at 37° C."}, "[7]": {"details": "10 mg/ml in LB liquid and LB agar plate medium, three months of storage at 4° C."}, "[8]": {"details": "100 mg/ml in LB liquid and LB agar plate medium, four months of storage at 4° C."}}, "note": "Read-outs that look alike come from different tables or passages of the source.", "data": [{"smiles": "CC1(C)S[C@@H]2[C@H](NC(=O)Cc3ccccc3)C(=O)N2[C@H]1C(=O)O.CCN(CC)CCOC(=O)c1ccc(N)cc1", "note": "[procaine penicillin]", "values": [{"measurement": "duration of medicine effect", "setting": "[1]", "result": "≤ 48", "unit": "h"}, {"measurement": "suppression of growth of E. coli DH5α after storage", "setting": "[2]; 10, 40 and 80 mg/ml, LB liquid and LB agar plate medium", "result": "able to completely suppress the growth"}, {"measurement": "suppression of growth of E. coli DH5α after storage", "setting": "[2]; 10, 40 and 80 mg/ml, SOC liquid and SOC agar plate medium", "result": "able to completely suppress the growth"}]}, {"smiles": "CC1(C)S[C@@H]2[C@H](NC(=O)[C@H](N)c3ccccc3)C(=O)N2[C@H]1C(=O)O", "note": "[ampicillin]", "values": [{"measurement": "time in which activity reduces by 10%", "setting": "[3]; dissolved in glucose injection solution", "result": "around 1 hour"}, {"measurement": "time in which activity reduces by 10%", "setting": "[3]; dissolved in water or physiological saline (0.9% sodium chloride)", "result": "2 to 3", "unit": "days"}, {"measurement": "time liquid culture medium and semi-solid agar culture plate medium containing the antibiotic can be kept", "setting": "[4]", "result": "about one"}, {"measurement": "suppression of E. coli growth after storage", "setting": "[2]; [6]", "result": "unable to suppress E. coli growth completely"}, {"measurement": "shelf life of culture media containing the antibiotic", "setting": "[2]", "result": "no more than two"}, {"measurement": "suppression of E. coli growth after storage", "setting": "[2]; [7]", "result": "unable to suppress E. coli growth completely"}, {"measurement": "suppression of E. coli growth after storage", "setting": "[2]; [8]", "result": "unable to suppress E. coli growth completely"}]}, {"smiles": "CC1(C)S[C@@H]2[C@H](NC(=O)C(C(=O)O)c3ccccc3)C(=O)N2[C@H]1C(=O)O", "note": "(stereo partly drawn) [carbenicillin]", "values": [{"measurement": "suppression of E. coli growth after storage", "setting": "[2]; [6]", "result": "unable to suppress E. coli growth completely"}, {"measurement": "shelf life of culture media containing the antibiotic", "setting": "[2]", "result": "no more than two"}, {"measurement": "suppression of E. coli growth after storage", "setting": "[2]; [7]", "result": "unable to suppress E. coli growth completely"}, {"measurement": "suppression of E. coli growth after storage", "setting": "[2]; [8]", "result": "unable to suppress E. coli growth completely"}]}, {"smiles": "CC(=O)OCC1=C(C(=O)O)N2C(=O)[C@@H](NC(=O)CSc3ccncc3)[C@H]2SC1.CC(=O)OCC1=C(C(=O)O)N2C(=O)[C@@H](NC(=O)CSc3ccncc3)[C@H]2SC1.c1ccc(CNCCNCc2ccccc2)cc1", "note": "[cephapirin benzathine]", "values": [{"measurement": "time injection suspension can be stored stably", "setting": "[5]", "result": "≤ 36", "unit": "months"}, {"measurement": "suppression of growth of E. coli DH5α after storage", "setting": "[2]; 0.25 and 1 mg/ml, M9 minimal liquid and agar plate medium", "result": "able to completely suppress the growth"}, {"measurement": "suppression of growth of E. coli DH5α after storage", "setting": "[2]; 0.25 and 1 mg/ml, YT liquid and YT agar plate medium", "result": "able to completely suppress the growth"}]}, {"smiles": "CC1(C)S[C@@H]2[C@H](NC(=O)Cc3ccccc3)C(=O)N2[C@H]1C(=O)O.c1ccc(CCNCc2ccccc2)cc1", "note": "[benethamine penicillin]", "values": [{"measurement": "suppression of growth of E. coli DH5α after storage", "setting": "[2]; 5 and 25 mg/ml, M9 minimal liquid and agar plate medium", "result": "able to completely suppress the growth"}, {"measurement": "suppression of growth of E. coli DH5α after storage", "setting": "[2]; 5 and 25 mg/ml, TB liquid and TB agar plate medium", "result": "able to completely suppress the growth"}]}, {"smiles": "Cc1onc(-c2ccccc2Cl)c1C(=O)N[C@@H]1C(=O)N2[C@@H]1SC(C)(C)[C@@H]2C(=O)O.Cc1onc(-c2ccccc2Cl)c1C(=O)N[C@@H]1C(=O)N2[C@@H]1SC(C)(C)[C@@H]2C(=O)O.c1ccc(CNCCNCc2ccccc2)cc1", "note": "[cloxacillin benzathine]", "values": [{"measurement": "suppression of growth of E. coli DH5α after storage", "setting": "[2]; 0.5 and 2.5 mg/ml, YPD liquid and YPD agar plate medium", "result": "able to completely suppress the growth"}, {"measurement": "suppression of growth of E. coli DH5α after storage", "setting": "[2]; 0.5 and 2.5 mg/ml, YT liquid and YT agar plate medium", "result": "able to completely suppress the growth"}]}, {"smiles": "CC1(C)S[C@@H]2[C@H](NC(=O)Cc3ccccc3)C(=O)N2[C@H]1C(=O)O.CC1(C)S[C@@H]2[C@H](NC(=O)Cc3ccccc3)C(=O)N2[C@H]1C(=O)O.c1ccc(CNCCNCc2ccccc2)cc1", "note": "[benzathine benzylpenicillin]", "values": [{"measurement": "duration of medicine effect", "setting": "[1]", "result": "3-4 weeks"}, {"measurement": "suppression of growth of E. coli DH5α after storage", "setting": "[2]; 0.5 and 2.5 mg/ml, LB liquid and LB agar plate medium", "result": "able to completely suppress the growth"}, {"measurement": "suppression of growth of E. coli DH5α after storage", "setting": "[2]; 0.5 and 2.5 mg/ml, SOC liquid and SOC agar plate medium", "result": "able to completely suppress the growth"}]}]}
